From patent US6500950B1, “Benzylidenepyrazolones, their preparation and use” (BASF Aktiengesellschaft, priority 1997, dated 2002) come the findings set out here.

Common to all, as to assay type: in vivo
One experiment concerns Chenopodium album. Nature of the experiment: Post-emergence greenhouse experiment, herbicidal activity. To be noted: post-emergence rate 0.125 or 0.0≅kg/ha of a.s., scale 0 to 100. From the text:
(§1) The seeds of the test plants were sown separately for each species. For the post-emergence treatment, the test plants were first grown to a plant height of 3 to 15 cm, depending on the plant habit, and only then treated with the active compounds which had been suspended or emulsified in water. The test plants for this purpose were either sown directly and grown in the same containers, or they were first grown separately as seedlings and transplanted into the test containers a few days prior to treatment. The rate of application for the post-emergence treatment was 0.125 or 0.0≅kg/ha of a.s. Depending on the species, the plants were kept at 10-25° C. or 20-35° C. The test period extended over 2 to 4 weeks. During this time, the plants were tended, and their response to the individual treatments was evaluated. Evaluation was carried out using a scale from 0 to 100. 100 means no emergence of the plants, or complete destruction of at least the aerial parts, and 0 means no damage, or normal course of growth. The plants used in the greenhouse experiments were from the following species: [table]

The subject of a further experiment is Polygonum persicaria. Described as above. To be noted: post-emergence rate 0.125 or 0.0≅kg/ha of a.s., scale 0 to 100.
Source text: as §1

The test system of another experiment is Echinochloa crus-galli. The description is as above. The note with it: for Test plants [damage in %] Echinochloa crus-galli: post-emergence.
Source text: as §1, with “The rate of application for the post-emergence treatment was 0.125 or 0.0≅kg/ha of a.s.” left out

A further experiment concerns Setaria faberii. Described as above. To be noted: for Test plants [damage in %] Setaria faberii: post-emergence.
Source text: as §1, with “The rate of application for the post-emergence treatment was 0.125 or 0.0≅kg/ha of a.s.” left out

In the next experiment the test system is Zea mays. As to the kind of experiment: Post-emergence greenhouse experiment, damage to useful plant. To be noted: post-emergence rate 0.125 or 0.0≅kg/ha of a.s., scale 0 to 100.
Source text: as §1

Another experiment concerns Amaranthus retroflexus. Nature of the experiment: Post-emergence greenhouse experiment, herbicidal activity.
Source text: as §1, with “The rate of application for the post-emergence treatment was 0.125 or 0.0≅kg/ha of a.s.” left out, “growth.” for “growth. The plants used in the greenhouse experiments were from the following species: [table]”

Another experiment deals with Solanum nigrum. The experiment is described as above.
Source text: as §1, with “The rate of application for the post-emergence treatment was 0.125 or 0.0≅kg/ha of a.s.” left out, “growth.” for “growth. The plants used in the greenhouse experiments were from the following species: [table]”

Setting [1] is: greenhouse, post-emergence rate 0.125 or 0.0≅kg/ha of a.s., scale 0 to 100.
[2] abbreviates: application rate 0.25 g/ha of a.s.
The mark [3] stands for this setting: application rate 0.5 g/ha of a.s.

Bounds are passed on as bounds.

Take `CCN1N=CC(=C(Cl)c2ccc(S(C)(=O)=O)c(C3=NOCC3)c2Cl)C1=O` [I.119, cis-4-[Chloro(2-chloro-3-(4,5-dihydroisoxazol-3-yl)-4-methylsulfonylphenyl)methylene]-2-ethyl-2,4-dihydropyrazol-3-one]: the “damage of the plants” value with Chenopodium album, with Polygonum persicaria, with Echinochloa crus-galli (setting [1]) and in the experiment with Setaria faberii (setting [1]) was more than 98% throughout. For the same molecule, the “Test plants [damage in %] Echinochloa crus-galli” value with Echinochloa crus-galli (setting [2]) and in the experiment with Echinochloa crus-galli (setting [3]) was 100% throughout. Further, the “Test plants [damage in %] Setaria faberii” value with Setaria faberii (setting [2]) and in the experiment with Setaria faberii (setting [3]) was 100% each time. In addition, in the experiment with Zea mays, the “damage of the useful plant maize” value was 0%. Also, the “Test plants [damage in %] Amaranthus retroflexus” value in the experiment on Amaranthus retroflexus (setting [2]) and in the experiment on Amaranthus retroflexus (setting [3]) was 100% throughout. The “Test plants [damage in %] Solanum nigrum” value with Solanum nigrum (setting [2]) and in the experiment on Solanum nigrum (setting [3]) was 100% each time.
